Measured values as given in the NIST ThermoML archive (doi:10.1016/j.fluid.2005.06.010).

Assay: xn = mol fraction of the nth substance listed
Details: Fluid (supercritical or subcritical phases), Vibrating tube method

c1ccc2ccccc2c1 [naphthalene] + O=C=O
Details | mass density [kg/m3]
328.08 K, 11734 kPa, x1 = 0.0065 | 526.75
328.08 K, 11815 kPa, x1 = 0.0065 | 533.03
328.08 K, 11937 kPa, x1 = 0.0065 | 541.87
328.08 K, 12028 kPa, x1 = 0.0065 | 548.44
328.08 K, 12127 kPa, x1 = 0.0065 | 555.07
328.08 K, 12334 kPa, x1 = 0.0065 | 568.49
328.08 K, 12646 kPa, x1 = 0.0065 | 586.46
328.08 K, 13208 kPa, x1 = 0.0065 | 613.74
328.08 K, 13824 kPa, x1 = 0.0065 | 638.32
328.08 K, 14520 kPa, x1 = 0.0065 | 661.29
328.08 K, 15410 kPa, x1 = 0.0065 | 685.64
328.08 K, 16319 kPa, x1 = 0.0065 | 706.24
328.08 K, 17226 kPa, x1 = 0.0065 | 723.77
328.08 K, 18128 kPa, x1 = 0.0065 | 739.05
328.08 K, 19046 kPa, x1 = 0.0065 | 752.91
328.08 K, 20020 kPa, x1 = 0.0065 | 766.16
328.08 K, 21002 kPa, x1 = 0.0065 | 778.22
328.08 K, 21995 kPa, x1 = 0.0065 | 789.31
328.08 K, 22871 kPa, x1 = 0.0065 | 798.48
328.08 K, 23424 kPa, x1 = 0.0065 | 803.93
328.1 K, 10952 kPa, x1 = 0.0038 | 442.37
328.1 K, 11010 kPa, x1 = 0.0038 | 448.13
328.1 K, 11054 kPa, x1 = 0.0038 | 452.8
328.1 K, 11219 kPa, x1 = 0.0038 | 468.8
328.1 K, 11363 kPa, x1 = 0.0038 | 482.43
328.1 K, 11517 kPa, x1 = 0.0038 | 495.77
328.1 K, 11649 kPa, x1 = 0.0038 | 507.25
328.1 K, 11832 kPa, x1 = 0.0038 | 521.74
328.1 K, 11972 kPa, x1 = 0.0038 | 532.31
328.1 K, 12088 kPa, x1 = 0.0038 | 540.71
328.1 K, 12322 kPa, x1 = 0.0038 | 556.51
328.1 K, 12538 kPa, x1 = 0.0038 | 569.79
328.1 K, 12706 kPa, x1 = 0.0038 | 579.47
328.1 K, 12941 kPa, x1 = 0.0038 | 591.84
328.1 K, 13117 kPa, x1 = 0.0038 | 600.49
328.1 K, 13376 kPa, x1 = 0.0038 | 612.23
328.1 K, 13618 kPa, x1 = 0.0038 | 622.37
328.1 K, 13925 kPa, x1 = 0.0038 | 634.21
328.1 K, 14240 kPa, x1 = 0.0038 | 645.33
328.1 K, 14511 kPa, x1 = 0.0038 | 654.12
328.1 K, 14850 kPa, x1 = 0.0038 | 664.35
328.1 K, 15299 kPa, x1 = 0.0038 | 676.78
328.1 K, 15816 kPa, x1 = 0.0038 | 689.62
328.1 K, 16314 kPa, x1 = 0.0038 | 700.83
328.1 K, 16845 kPa, x1 = 0.0038 | 711.78
328.1 K, 17403 kPa, x1 = 0.0038 | 722.35
328.1 K, 18014 kPa, x1 = 0.0038 | 732.96
328.1 K, 18738 kPa, x1 = 0.0038 | 744.46
328.1 K, 19499 kPa, x1 = 0.0038 | 755.49
328.1 K, 20377 kPa, x1 = 0.0038 | 767.2
328.1 K, 21134 kPa, x1 = 0.0038 | 776.5
328.1 K, 22132 kPa, x1 = 0.0038 | 787.85
328.1 K, 23017 kPa, x1 = 0.0038 | 797.14
328.1 K, 24029 kPa, x1 = 0.0038 | 806.95
328.1 K, 25024 kPa, x1 = 0.0038 | 815.98
328.11 K, 15028 kPa, x1 = 0.0214 | 725.95
328.11 K, 15923 kPa, x1 = 0.0214 | 742.34
328.11 K, 17035 kPa, x1 = 0.0214 | 759.59
328.11 K, 18008 kPa, x1 = 0.0214 | 773.1
328.11 K, 19015 kPa, x1 = 0.0214 | 785.68
328.11 K, 20044 kPa, x1 = 0.0214 | 797.24
328.11 K, 21022 kPa, x1 = 0.0214 | 807.22
328.11 K, 22000 kPa, x1 = 0.0214 | 816.43
328.11 K, 23011 kPa, x1 = 0.0214 | 825.23
328.11 K, 24023 kPa, x1 = 0.0214 | 833.49
332.93 K, 18103 kPa, x1 = 0.0198 | 740.17
332.93 K, 19004 kPa, x1 = 0.0198 | 753.43
332.93 K, 20061 kPa, x1 = 0.0198 | 767.37
332.93 K, 21067 kPa, x1 = 0.0198 | 779.34
332.93 K, 22050 kPa, x1 = 0.0198 | 789.99
332.93 K, 23026 kPa, x1 = 0.0198 | 799.71
332.93 K, 23949 kPa, x1 = 0.0198 | 808.29
332.93 K, 24971 kPa, x1 = 0.0198 | 817.26
332.95 K, 12055 kPa, x1 = 0.0049 | 468.83
332.95 K, 13050 kPa, x1 = 0.0049 | 535.86
332.95 K, 14011 kPa, x1 = 0.0049 | 584.76
332.95 K, 14979 kPa, x1 = 0.0049 | 622.27
332.95 K, 16026 kPa, x1 = 0.0049 | 654.27
332.95 K, 17024 kPa, x1 = 0.0049 | 679.08
332.95 K, 18017 kPa, x1 = 0.0049 | 699.78
332.95 K, 18994 kPa, x1 = 0.0049 | 717.43
332.95 K, 20008 kPa, x1 = 0.0049 | 733.55
332.95 K, 21018 kPa, x1 = 0.0049 | 747.87
332.95 K, 22004 kPa, x1 = 0.0049 | 760.51
332.95 K, 23003 kPa, x1 = 0.0049 | 772.24
332.95 K, 24035 kPa, x1 = 0.0049 | 783.38
332.96 K, 13066 kPa, x1 = 0.0093 | 562.4
332.96 K, 14010 kPa, x1 = 0.0093 | 607.19
332.96 K, 14033 kPa, x1 = 0.0144 | 623.67
332.96 K, 15035 kPa, x1 = 0.0144 | 657.01
332.96 K, 15044 kPa, x1 = 0.0093 | 643.85
332.96 K, 15076 kPa, x1 = 0.0173 | 670.77
332.96 K, 16046 kPa, x1 = 0.0093 | 671.79
332.96 K, 16056 kPa, x1 = 0.0144 | 683.98
332.96 K, 16081 kPa, x1 = 0.0173 | 695.5
332.96 K, 17019 kPa, x1 = 0.0144 | 704.86
332.96 K, 17024 kPa, x1 = 0.0173 | 714.84
332.96 K, 17026 kPa, x1 = 0.0093 | 694.34
332.96 K, 17996 kPa, x1 = 0.0173 | 731.97
332.96 K, 18009 kPa, x1 = 0.0093 | 713.47
332.96 K, 18013 kPa, x1 = 0.0144 | 723.3
332.96 K, 18019 kPa, x1 = 0.0235 | 741.5
332.96 K, 19018 kPa, x1 = 0.0235 | 756.06
332.96 K, 19028 kPa, x1 = 0.0144 | 739.71
332.96 K, 19030 kPa, x1 = 0.0093 | 730.7
332.96 K, 19068 kPa, x1 = 0.0173 | 748.38
332.96 K, 19996 kPa, x1 = 0.0173 | 761.05
332.96 K, 20018 kPa, x1 = 0.0144 | 753.83
332.96 K, 20030 kPa, x1 = 0.0093 | 745.57
332.96 K, 20031 kPa, x1 = 0.0235 | 769.21
332.96 K, 20990 kPa, x1 = 0.0144 | 766.28
332.96 K, 21000 kPa, x1 = 0.0235 | 780.59
332.96 K, 21004 kPa, x1 = 0.0093 | 758.59
332.96 K, 21018 kPa, x1 = 0.0173 | 773.69
332.96 K, 21972 kPa, x1 = 0.0235 | 791.04
332.96 K, 21996 kPa, x1 = 0.0173 | 784.65
332.96 K, 22030 kPa, x1 = 0.0144 | 778.43
332.96 K, 22033 kPa, x1 = 0.0093 | 771.07
332.96 K, 22991 kPa, x1 = 0.0173 | 794.89
332.96 K, 22996 kPa, x1 = 0.0235 | 801.19
332.96 K, 23002 kPa, x1 = 0.0093 | 781.81
332.96 K, 23017 kPa, x1 = 0.0144 | 789
332.96 K, 23986 kPa, x1 = 0.0235 | 810.27
332.96 K, 23990 kPa, x1 = 0.0093 | 791.9
332.96 K, 23999 kPa, x1 = 0.0144 | 798.72
332.96 K, 24019 kPa, x1 = 0.0173 | 804.7
332.96 K, 24677 kPa, x1 = 0.0173 | 810.61
332.96 K, 24809 kPa, x1 = 0.0235 | 817.39
332.96 K, 24940 kPa, x1 = 0.0144 | 807.41
333 K, 12451 kPa, x1 = 0.0065 | 503.55
333 K, 13033 kPa, x1 = 0.0065 | 540.53
333 K, 13760 kPa, x1 = 0.0065 | 578.33
333 K, 14541 kPa, x1 = 0.0065 | 610.99
333 K, 15426 kPa, x1 = 0.0065 | 640.78
333 K, 16333 kPa, x1 = 0.0065 | 665.58
333 K, 17231 kPa, x1 = 0.0065 | 686.41
333 K, 18146 kPa, x1 = 0.0065 | 704.71
333 K, 19018 kPa, x1 = 0.0065 | 720.04
333 K, 20017 kPa, x1 = 0.0065 | 735.62
333 K, 21002 kPa, x1 = 0.0065 | 749.43
333 K, 22012 kPa, x1 = 0.0065 | 762.16
333 K, 23025 kPa, x1 = 0.0065 | 773.85
333 K, 24004 kPa, x1 = 0.0065 | 784.3
333 K, 25022 kPa, x1 = 0.0065 | 794.34
333.02 K, 12620 kPa, x1 = 0.0038 | 505.57
333.02 K, 12810 kPa, x1 = 0.0038 | 517.8
333.02 K, 12997 kPa, x1 = 0.0038 | 529.34
333.02 K, 13183 kPa, x1 = 0.0038 | 540.11
333.02 K, 13406 kPa, x1 = 0.0038 | 552.35
333.02 K, 13640 kPa, x1 = 0.0038 | 564.51
333.02 K, 13893 kPa, x1 = 0.0038 | 576.62
333.02 K, 14134 kPa, x1 = 0.0038 | 587.16
333.02 K, 14390 kPa, x1 = 0.0038 | 597.75
333.02 K, 14768 kPa, x1 = 0.0038 | 612.29
333.02 K, 15159 kPa, x1 = 0.0038 | 625.81
333.02 K, 15535 kPa, x1 = 0.0038 | 637.78
333.02 K, 16027 kPa, x1 = 0.0038 | 652.03
333.02 K, 16469 kPa, x1 = 0.0038 | 663.57
333.02 K, 17018 kPa, x1 = 0.0038 | 676.71
333.02 K, 17622 kPa, x1 = 0.0038 | 689.78
333.02 K, 18197 kPa, x1 = 0.0038 | 701.13
333.02 K, 18835 kPa, x1 = 0.0038 | 712.75
333.02 K, 19606 kPa, x1 = 0.0038 | 725.55
333.02 K, 20350 kPa, x1 = 0.0038 | 736.76
333.02 K, 21107 kPa, x1 = 0.0038 | 747.32
333.02 K, 22018 kPa, x1 = 0.0038 | 758.99
333.02 K, 22977 kPa, x1 = 0.0038 | 770.32
333.02 K, 23992 kPa, x1 = 0.0038 | 781.31
333.02 K, 25039 kPa, x1 = 0.0038 | 791.79
